This note sets out measurements from US8153635B2, “Compounds and compositions as modulators of GPR119 activity” (IRM LLC, priority 2007, dated 2012).

Bounds are passed on as bounds.

The target of this experiment is T1, human GPR119 (Homo sapiens, UniProt Q8TDV5).
T1 construct: expressed in transfected cells; host or cells: Flp-In-CHO cells (Invitrogen, Cat.# R758-07), stably transfected with hGPR119 in pcDNA5/FRT plus pOG44
T1 sequence (Q8TDV5 1-335): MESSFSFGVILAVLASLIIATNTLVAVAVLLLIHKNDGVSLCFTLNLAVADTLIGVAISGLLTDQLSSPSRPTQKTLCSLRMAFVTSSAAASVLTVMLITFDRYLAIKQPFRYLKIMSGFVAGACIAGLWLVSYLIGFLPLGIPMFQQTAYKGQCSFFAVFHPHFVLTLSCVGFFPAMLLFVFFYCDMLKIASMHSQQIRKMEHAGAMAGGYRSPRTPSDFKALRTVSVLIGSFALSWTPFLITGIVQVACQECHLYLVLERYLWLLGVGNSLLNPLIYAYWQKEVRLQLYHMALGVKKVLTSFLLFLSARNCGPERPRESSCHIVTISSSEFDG
Nature of the experiment: Cyclic AMP assay in CHO-hGPR119 cells (HTRF). Format: cell-based. The settings on record: increase in intracellular cAMP; GPR119-transfected CHO cells. The method, then:
Flp-In-CHO cells (Invitrogen, Cat.# R758-07) are maintained in Ham's F12 medium supplemented with 10% fetal bovine serum, 1% antibiotic mixture and 2 mM L-glutamine. The cells are transfected with a DNA mixture containing human GPR119 (hGPR119) or mouse GPR119 (mGPR119) in the pcDNA5/FRT vector (Invitrogen) and the pOG44 vector (Invitrogen) in a 1:9 ratio using Fugene6 (Roche), according to the manufacturer's instructions. After 48 hours, the medium is changed to medium supplemented with 400 μg/mL hygromycin B to initiate the selection of stably transfected cells. The resultant cell lines are designated CHO-hGPR119 and CHO-mGPR119 respectively.
To test the activity of compounds of the invention on human GPR119, CHO-hGPR119 cells are harvested and resuspended at 300,000 cells/mL in assay media (Ham's F12 medium plus 3% lipid-depleted fetal bovine serum, 1 mM 3-isobutyl-1-methyl-xanthine (IBMX)). Cells (5 μl) are placed in each well of a white 1536-well plate. A compound of the invention (50 nL) diluted in 100% dimethyl sulfoxide (DMSO) is added to each well and the plates are incubated at 37° C. for 30 minutes. cAMP concentrations are then measured using the cAMP dynamic 2 kit (Cisbio Bioassays) according to the manufacturer's instructions. 2.5 μL of diluted cAMP-XL665 is added to each well, followed by 2.5 μL diluted anti-cAMP-Cryptate. The plate is covered and incubated for one hour at room temperature, then read on an Envision plate reader (Perkin Elmer) using the HTRF method with excitation at 337 nm, and emissions measured at 620 nm and […].
Background: Time-resolved FRET reads energy transfer from a long-lived donor to a nearby acceptor.

What is called EC50 is the concentration that produces a half-maximal response. A low value points to an effect from little substance.

For the molecule `CC(C)c1nc(N2CCC(COc3ccc(C4=CCN(S(C)(=O)=O)CC4)cc3)CC2)no1` [Example J7], the EC50 was < 200 nM.

Turning to `CC(C)c1noc(N2CCC(COc3ccc(N4CCN(S(C)(=O)=O)CC4)cn3)CC2)n1` [Example E9, 3-Isopropyl-5-(4-((5-(4-(methylsulfonyl)piperazin-1-yl)pyridin-2-yloxy)methyl)piperidin-1-yl)-1,2,4-oxadiazole], the EC50 lay in the range of 200 to 800 nM.

With `CC(C)OC(=O)N1CCC(COc2ccc(N3CCN(S(C)(=O)=O)CC3)nn2)CC1` [Example C2, Isopropyl 4-((6-(4-(methylsulfonyl)piperazin-1-yl)pyridazin-3-yloxy)methyl)piperidine-1-carboxylate], the EC50 was > 800 nM.

In the case of `CC1(OC(=O)N2CCC(COc3cnc(N4CCC(S(C)(=O)=O)CC4)cn3)CC2)CC1` [Example G4, 1-Methylcyclopropyl 4-((5-(4-(methylsulfonyl)piperidin-1-yl)pyrazin-2-yloxy)methyl)piperidine-1-carboxylate], the 50% effective concentration (EC50) is < 200 nM.

On to `CC1(OC(=O)N2CCC(COc3cnc(N4CCN(S(=O)(=O)[C@@H]5CCNC5)CC4=O)cn3)CC2)CC1` [Example O41], for which the EC50 is < 200 nM.

As to `CC(C)OC(=O)N1CCC(CCCOc2ccc(N3CCN(S(C)(=O)=O)CC3)cc2)CC1` [Example A3], the EC50 was > 800 nM.

With `CC1(OC(=O)N2CCC(COc3cnc(N4CC(NS(C)(=O)=O)C4)cn3)CC2)CC1` [Example U5, 1-Methylcyclopropyl 4-((5-(3-(methylsulfonamido)azetidin-1-yl)pyrazin-2-yloxy)methyl)piperidine-1-carboxylate], the concentration giving a half-maximal response (EC50) was < 200 nM.

`CC(C)OC(=O)N1CCC(CCc2ccc(N3CCN(S(C)(=O)=O)CC3)nc2)CC1` [Example D2, Isopropyl 4-(2-(6-(4-(methylsulfonyl)piperazin-1-yl)pyridin-3-yl)ethyl)piperidine-1-carboxylate] displayed an EC50 of 200 to 800 nM.

For the molecule `CC1(OC(=O)N2CCC(COc3cnc(N4CCN(S(C)(=O)=O)CC4)cn3)CC2)CC1` [Example E3, 1-Methylcyclopropyl 4-((5-(4-(methylsulfonyl)piperazin-1-yl)pyrazin-2-yloxy)methyl)piperidine-1-carboxylate], the EC50 is < 200 nM.

For the molecule `CS(=O)(=O)N1CCC(c2ccc(OCC3CCN(c4ccc(Cl)cn4)CC3)cc2)CC1` [Example J22], the EC50 was < 200 nM.

Take `CC(C)(C)OC(=O)N1CCC(COc2cnc(N3CCCN(S(C)(=O)=O)CC3)cn2)CC1` [Example G1, tert-Butyl 4-((5-(4-(methylsulfonyl)-1,4-diazepan-1-yl)pyrazin-2-yloxy)methyl)piperidine-1-carboxylate]: the EC50 was > 800 nM.

Molecule `CS(=O)(=O)N1CCC(C(=O)O)(c2ccc(OCC3CCN(c4ncc(F)cn4)CC3)cc2)CC1` [Example T1, 4-(4-((1-(5-fluoropyrimidin-2-yl)piperidin-4-yl)methoxy)phenyl)-1-(methylsulfonyl)piperidine-4-carboxylic acid] had an EC50 of 200 to 800 nM.

With `CCc1cnc(N2CCC(Oc3ccc4c5c(oc4c3)CN(S(C)(=O)=O)CC5)CC2)nc1` [Example V5, 7-(1-(5-Ethylpyrimidin-2-yl)piperidin-4-yloxy)-2-(methylsulfonyl)-1,2,3,4-tetrahydrobenzofuro[2,3-c]pyridine], the EC50 is < 200 nM.

As for `CC(C)c1noc(N2CCC(CCc3ncc(N4CCN(S(C)(=O)=O)CC4)s3)CC2)n1` [Example I1, 3-Isopropyl-5-(4-(2-(5-(4-(methylsulfonyl)piperazin-1-yl)thiazol-2-yl)ethyl)piperidin-1-yl)-1,2,4-oxadiazole], the EC50 was < 200 nM.

Take `CC1(OC(=O)N2CCC(COc3cnc(N4CCN(S(=O)(=O)CCCN5CCC5)CC4=O)cn3)CC2)CC1` [Example O9]: the EC50 was < 200 nM.

`CCc1cnc(N2CCC(CCCc3nc(N4CCN(S(C)(=O)=O)CC4)no3)CC2)nc1` [Example H3, 5-(3-(1-(5-Ethylpyrimidin-2-yl)piperidin-4-yl)propyl)-3-(4-(methylsulfonyl)piperazin-1-yl)-1,2,4-oxadiazole]: the EC50 was < 200 nM.
